US20210369583A1, “COMPOSITIONS FOR PROVIDING SKIN CARE BENEFITS AND METHODS OF USE” (Danisco US Inc., priority 2018, published 2021)

Assays:
Assay type in all cases: cell-based
[1] = system: human living skin explant; assay: TUNEL assay (UV-induced DNA damage) on human living skin explants; conditions: UV irradiated
Protocol: (§1) human skin explants of an average diameter of 12 mm (±1 mm) were prepared on an abdoplasty coming from a person). The explants were kept in survival in BEM culture medium at 37° C. in a humid, 5%-CO2 atmosphere.
(§2) On day 0 (D0), day 1, day 2 and day 3 (3 hours before irradiation), the tested products were applied topically on surface of skin explants at the rate of 2 mg/cm^2, twice a day for D1 and D2 and once on DO and D3. […] The medium was half renewed (1 ml per well) on day 2.
(§3) On D3, the culture media of all the batches was replaced by HBSS solution (Hank's Balanced Saline Solution; 1 ml per explant). The batches “UV” were irradiated by UVA+ UVB using a UV simulator Vibert Lourmat RMX 3W with a dose of 18 J/cm2 of UVA (4 MED, minimal erythemal dose) and 0.3 J/cm2 of UVB (2 MED). The unirradiated batches were kept in HBSS in the dark. At the end of the irradiation the explants were put back in 2 mL of BEM medium.
(§4) After fixation for 24 hours in buffered formalin, the samples were dehydrated and impregnated in paraffin using a Leica PEARL dehydration automat. The samples were embedded using a Leica EG 1160 embedding station. 5-μm-thick sections were made using a Leica RM 2125 Minot-type microtome, and the sections were mounted on Superfrost® histological glass slides. The frozen samples were cut into 7-μm-thick sections using a Leica CM 3050 cryostat. Sections were then mounted on Superfrost® plus silanized glass slides. The microscopical observations were realized using a Leica DMLB or Olympus BX43 microscope. Pictures were digitized with a numeric DP72 Olympus camera with CellD storing software.
DNA oxidization is a type of damage that can be promoted by reactive oxygen species (ROS), generated by UV exposure. […] The staining was assessed by microscopical observation. Batches analyzed were T, TUV, P1UV, P2UV, P3UV at day 4 also referred to as TJ4, TUVJ4, P1UVJ4, P2UVJ4, P3UVJ4 (T=Control batch non treated non irradiated; TJ4=T at Day 4 (D4); TUV: control batch non treated UV irradiated; TUVJ4=[…] at Day 4; P1J4: product A 4% non irradiated at D4; P2J4: product A 2% non irradiated at D4; P3J4: product A 1% non irradiated at D4; P1UV: product A 4% UV irradiated; P1UVJ4: product A 4% UV irradiated at D4 P2UV: product A 2% UV irradiated; P2UVJ4: product A 2% UV irradiated at D4; P3UV: product A 1% UV irradiated; P3UVJ4: product A 1% UV irradiated at D4

[2] = system: living human skin explants; assay: Biochemical assay of MDA (lipid peroxidation) on living human skin explants exposed to pollutants
Protocol: Product A (Table 11) was diluted in water to obtain the following products at concentrations: product P1=A at 4%, product P2=A at 2% and product P3=A at 1%.
59 human skin explants of an average diameter of 14 mm (±1 mm) were prepared on an abdoplasty coming from a person. The explants were kept in survival in BEM culture medium at 37° C. in a humid, 5%-CO2 atmosphere.
The tested products were topically applied on the basis of 2 μl per cm^2 and spread using a small spatula twice a day (morning and evening) on day 0, 1, 2, 3 and 4.
On D4, the explants of the batches ML and PML were placed on the 3D grid with 900 μl of HBSS and placed into the PolluBox® system.
3 mL of the solution <<ML>> (supplemented with 150 μl/ml of NaCl 0.9%) were exposed by vaporization for 1 hour and half, as shown in the figure below.
The MDA assay was realized with an enhanced method of the TBARs (Thiobarbituric Acid Reactive Species) assay. The MDA was assayed in HBSS medium by addition of TBARs solution (thiobarbituric acid, hydrochloric acid and tricholoroacetic acid) and placed in a water bath (80° C. for 15 minutes). A lot of substances (like glucose) which are not related with lipoperoxidation, react with thiobarbituric acid (ThioBarbituric Acid Reagents=TBARS), so to enhance the specificity of the assay, the MDA was extracted by a liquid/liquid extraction with butanol. The MDA in butanol was measured in spectrofluorimetry (excitation: 515 nm, emission: 550 nm) using a Tecan Infinite M200 Pro microplate reader. Using this assay, MDA contained in the culture medium BEMc on […] was measured for the 4 explants per batch. The MDA concentration was expressed in pmol of MDA/ml of the medium. Concerned batches: all batches on day 5, 4 explants per batch.
The average of the blank batch TJ5 was calculated (154.0 nmol/L). Then, for each explant of MLJ5, this average value was subtracted from […]. That corresponds to calculating the delta (increase) of MDA induced by ML for each explant compared to the average of the batch without ML, it is ΔML.
These average deltas were then compared to the average delta of MDA induction without treatment (ΔML).

[3] = system: human living skin explant; assay: Cell viability of human living skin explants (UV study); conditions: day 4
Protocol: as §1, §2, §3, §4

## O=C(O)[C@@H]1CCCN1 [Combination P4, L-Proline]
[1]
  activity against UV-induced DNA damage: strong inhibition of the increase of DNA damage
[2]; MDA induction by pollutants, day 5
  MDA, variation ΔPML vs ΔML: −34% #^
[2]; after pollutant exposure (ΔPML vs ΔML)
  reduction of the increase of MDA: 34%
[2]; after pollutants exposure, day 5
  MDA, variation PML vs ML: −10% ns
[3]; UV irradiated
  Cell Viability, variation vs TUVJ4: ↔ (indicates no variation)
[3]; non irradiated
  Cell Viability, variation vs TJ4: ↔ (indicates no variation)
